Like-named read-outs stand apart in the source and are kept apart here.
Key:
[1] = system: HUVEC (human umbilical vein endothelial cells); experiment: Cytotoxicity on HUVEC (CCK8), IC50 of polidocanols with different chain lengths; assay type: cell-based; conditions: in words, values of Table 8 not in this copy
rabbit ear marginal vein = experiment: Venous sclerosis after single injection of foam preparation into rabbit marginal ear vein (effective rate, appearance); assay type: in vivo, New Zealand rabbit; conditions: for Effective rate of venous sclerosis compared with positive control low-dose group: in words
[2] = system: marginal ear vein of rabbits; experiment: Venous pathological sections 14 days after injection into rabbit marginal ear vein; assay type: in vivo, New Zealand rabbit; conditions: for Pathological score of rabbit ear blood vessels compared with positive low-dose control group: in words
[3] = Foaming efficiency of 1% solutions (foam drainage, half-life, coalescence); assay type: physicochemical; conditions: 1% solution, 20 pumps
[4] = 14 days after intravenous injection into rabbit ear margin

| Compound | IC50 value compared with polidocanol group [1] | Effective rate of venous sclerosis (rabbit ear marginal vein; [4]) | Effective rate of venous sclerosis compared with positive control low-dose group (rabbit ear marginal vein; 14 days) | Effective rate of venous sclerosis compared with positive control low-dose group (rabbit ear marginal vein; 21 days) | Pathological changes in blood vessels, high magnification [2] | Pathological changes in blood vessels, low magnification [2] | Pathological score of rabbit ear blood vessels compared with positive low-dose control group [2] | further results |
| --- | --- | --- | --- | --- | --- | --- | --- | --- |
| CCCCCCCCCCCCOCCOCCOCCOCCOCCOCCOCCOCCOCCOCCOCCOCCO [DD-PEG12-OH] | smaller than those of the polidocanol group | – | – | – | – | – | – | – |
| CCCCCCCCCCCCOCCOCCOCCOCCOCCOCCOCCOCCOCCOCCO [DD-PEG10-OH] | smaller than those of the polidocanol group | above 83.33% | not lower than the positive control low-dose group | higher than the positive control low-dose group | a large number of fibroblast proliferations can be seen in the lumen, and red blood cells are scattered among local fibroblasts; new capillaries and macrophages that phagocytose hemosiderin can be seen locally | The tissue structure of each layer of the wall is unclear and the blood vessel lumen is occluded | higher than those of the positive low-dose control group | Foam drainage time (FDT), precipitation time of liquid, in words ([3]; relative to other samples): relatively slow |
| CCCCCCCCCCCCOCCOCCOCCOCCO [DD-PEG4-OH] | greater than that of the polidocanol group | – | – | – | – | – | – | Foam half-life time (FHT), in words ([3]; even if a small amount of foam is formed): disappear in a very short time; Foam formation ([3]; in words, listed as P4): it is difficult for the P4 sample to form foam |
| CCCCCCCCCCCCOCCOCCOCCOCCOCCOCCOCCOCCO [DD-PEG8-OH] | smaller than those of the polidocanol group | above 83.33% | not lower than the positive control low-dose group | higher than the positive control low-dose group | a large number of fibroblast proliferations can be seen in the lumen, and red blood cells are scattered among local fibroblasts; new capillaries and macrophages that phagocytose hemosiderin can be seen locally | The tissue structure of each layer of the wall is unclear and the blood vessel lumen is occluded | higher than those of the positive low-dose control group | Appearance of veins (rabbit ear marginal vein; 14 days after administration): some Blood vessels are blocked; Appearance of veins (rabbit ear marginal vein; 21 days after administration): some blood vessels in the rabbit ear Completely blocked |
| CCCCCCCCCCCCOCCOCCOCCOCCOCCOCCOCCOCCOCCOCCOCCO [DD-PEG11-OH] | smaller than those of the polidocanol group | above 83.33% | not lower than the positive control low-dose group | higher than the positive control low-dose group | a large number of fibroblast proliferations can be seen in the lumen, and red blood cells are scattered among local fibroblasts; new capillaries and macrophages that phagocytose hemosiderin can be seen locally | The tissue structure of each layer of the wall is unclear and the blood vessel lumen is occluded | higher than those of the positive low-dose control group | – |
| CCCCCCCCCCCCOCCOCCOCCOCCOCCOCCOCCOCCOCCO [DD-PEG9-OH] | smaller than those of the polidocanol group | – | – | – | – | – | – | Appearance of veins (rabbit ear marginal vein; 14 days after administration, low-dose group): some Blood vessels are blocked; Effective rate of venous sclerosis (rabbit ear marginal vein; 14 days, P9 high-dose group): above 83.33%; Effective rate of venous sclerosis compared with positive control low-dose group (rabbit ear marginal vein; 14 days, P9 high-dose group): not lower than the positive control low-dose group; Effective rate of venous sclerosis (rabbit ear marginal vein; 14 days, P9 low-dose group): above 83.33%; Effective rate of venous sclerosis compared with positive control low-dose group (rabbit ear marginal vein; 14 days, P9 low-dose group): not lower than the positive control low-dose group; Appearance of veins (rabbit ear marginal vein; 21 days after administration, low-dose group): some blood vessels in the rabbit ear Completely blocked; Effective rate of venous sclerosis compared with positive control low-dose group (rabbit ear marginal vein; 21 days, P9 high-dose group): higher than the positive control low-dose group; Effective rate of venous sclerosis compared with positive control low-dose group (rabbit ear marginal vein; 21 days, P9 low-dose group): higher than the positive control low-dose group; Pathological score of rabbit ear blood vessels compared with positive low-dose control group ([2]; P9 high-dose group): higher than those of the positive low-dose control group; Pathological score of rabbit ear blood vessels compared with positive low-dose control group ([2]; P9 low-dose group): higher than those of the positive low-dose control group; Pathological changes in blood vessels, high magnification ([2]; high-dose group): a large number of fibroblast proliferations can be seen in the lumen, and red blood cells are scattered among local fibroblasts; new capillaries and macrophages that phagocytose hemosiderin can be seen locally; Pathological changes in blood vessels, low magnification ([2]; high-dose group): The tissue structure of each layer of the wall is unclear and the blood vessel lumen is occluded; Pathological changes in blood vessels, high magnification ([2]; low-dose group): a large number of fibroblast proliferations can be seen in the lumen, and red blood cells are scattered among local fibroblasts; new capillaries and macrophages that phagocytose hemosiderin can be seen locally; Pathological changes in blood vessels, low magnification ([2]; low-dose group): The tissue structure of each layer of the wall is unclear and the blood vessel lumen is occluded |
| CCCCCCCCCCCCOCCOCCOCCOCCOCCOCCOCCOCCOCCOCCOCCOCCOCCOCCOCCOCCOCCOCCOCCOCCOCCOCCOCCOCCO [DD-PEG24-OH] | greater than that of the polidocanol group | – | – | – | – | – | – | Foam coalescence time (FCT), time for foam to completely disappear [3]: about 4.25 min |
